Source: a melting point compilation (Tetko et al.; mined from patent text by program, amines drawn as free bases though some values may be those of a salt)

melting point [°C] | SMILES
265 to 269 | CCOC(=O)c1ccc(NC(=O)CCn2cnc3c(=O)[nH]cnc32)cc1
141 to 142 | CC1(C)OC(c2ccc(Cl)cc2Cl)C(Cn2cncn2)(c2ccc(Cl)cc2)O1 (stereo unspecified)
211 | CC(=O)Nc1ccc(S(=O)(=O)c2cc(Br)nc(Br)c2)cc1
102 to 104 | CCC(C)(C(=O)N(C)C)n1cc(C)c(-c2ccccc2)n1 (stereo unspecified)
94 to 95 | CC(C)(OC(=O)CCc1nc(-c2ccc(Cl)cc2)co1)c1ccccc1
148 to 149 | Cc1cc(C)cc(C(N)=O)c1
90 | O=C(O)Cc1ccc(OCCNC(=O)C2Cc3ccccc3N2S(=O)(=O)c2ccc(-c3ccc(F)cc3Cl)cc2)cc1 (stereo unspecified)
118 to 120 | CC1(C)CCCC(NC(=O)OC(C)(C)C)C(=O)N1 (stereo unspecified)
347 to 349 | CC(C)NC(=O)c1c[nH]c2ncc(-c3nn(C)c4cc(Cl)cc(F)c34)nc12
105 to 107 | CCC1(CCCCl)C(=O)Nc2ccc(Cl)cc21 (stereo unspecified)
99 to 101 | Cc1nc(NC(=O)c2cccc3ccccc23)sc1C(=O)NCc1ccccc1
75 to 76 | CCN(CC)CCOc1cccc2c1c1cc(F)ccc1n2Cc1ccc(F)cc1
59 to 61 | C=Cc1cc(C(C)NC(=O)OC(C)(C)C)cc(F)c1N (stereo unspecified)
109 to 112 | CCCCCc1c(-c2ccc3cc(OCC#N)ccc3c2)n(Cc2ccccc2)c2ccccc12
70 to 71 | COC(=O)[C@H]1N[C@@H](c2cccnc2)[C@@H]([N+](=O)[O-])[C@@H]1[C@@H](OCc1ccccc1)C(C)C
231 to 233 | CC1SC(C(=O)Nc2ccc(CN3CCOC3=O)cc2)Cc2cc3c(cc2C1=O)OCO3 (stereo unspecified)
105 to 106 | CCOc1cc(OCCCCc2cc(-c3ccc(C(F)(F)F)cc3)no2)ccc1CCC(=O)O
68 to 73 | CCOC(=O)C(Cc1ccc(C(C)C)cc1)C(=O)N[C@@H](CC(C)C)C(=O)OC(C)(C)C (stereo partly specified)
169 to 171 | c1ccn2c(=Nc3nccs3)snc2c1
163 to 166 | O=C(Nc1ccccc1)Nc1cc(F)ccc1C(=O)O
175 to 177 | CC#CCC(CC#CC)(C(=O)O)S(=O)(=O)c1ccc(N2CCC(NC[C@H](O)c3ccc(O)c(NS(C)(=O)=O)c3)CC2)cc1
228 to 229 | Cn1cc(C#N)c(=O)c(-c2cccc(C(F)(F)F)c2)c1
175 | Cc1nc(C)c(-c2ccc(OC3SCC(O)C(O)C3O)cn2)s1 (stereo unspecified)

melting point [°C] | SMILES
122 to 125 | COc1ccc(S(=O)(=O)NC(C)(C)C(=O)NO)cc1
110 to 112 | CCOC(=O)CC1Cc2ccc(O)cc2Cc2ccccc21 (stereo unspecified)
222 | COc1ccc(N2CCN(c3ccc(NC(=S)NC(C)(C)CO)cc3)CC2)cc1
118 | CC[C@H](COC)n1cc(Br)nc(N2CCc3cc(Br)cc(Cl)c32)c1=O
185 to 187 | COc1c(NC(=O)c2ccc(Br)cc2)ccc2cc(CO)cnc12
54 | C#CCOCC(CC)(OC)c1cccc(OCc2ccc3ccccc3c2)c1 (stereo unspecified)
170 to 174 | Cc1cc(C)c2c(c1)SCCC2=NO
277 to 279 | Cc1nc2c(c(=O)[nH]1)-c1ccc(Cl)cc1C(c1ccccc1Cl)=NC2
157 to 159 | ON=Cc1cc2c(cn1)[nH]c1ccccc12
154 to 155 | N#CCCNC(=O)c1cccc(-c2cccc3cc(Cc4cccc(C(F)(F)F)c4)oc23)c1
177 | Cn1c(S(=O)(=O)c2ccc(C(=O)OCC(C)(C)C)c(Cl)c2)n[nH]c1=O
103 to 104 | CC(C)C(=O)N[C@@H](CS)C(=O)O
142 | COc1cc(O)ccc1[N+](=O)[O-]
123 to 135 | N#Cc1c(N2CCN(C(=O)C3CCCO3)CC2)c2ccccc2n(Cc2ccc(F)cc2)c1=O (stereo unspecified)
132 | Cc1cc(C)c([C@H](O)[C@@H](C#N)c2ccccc2)c(C)c1 (racemic)
117 | COC(=O)CCCc1cc2nc(Cl)ccc2n1S(=O)(=O)c1ccc2nc(C)sc2c1
178 to 180 | CS(=O)(=O)c1cnc(Cl)c(I)c1
210 to 215 | N#Cc1cc(O)c(O)c(C#N)c1CCCCC(=O)O
207 to 209 | Sc1ncc(-c2ccccc2)s1
175 to 176 | COCCNC(=O)CC1CN=C(c2cc3cc(Oc4ccc(S(C)(=O)=O)nc4)cc(OC)c3[nH]2)S1 (stereo unspecified)
91 to 92 | COc1ccccc1NC(=O)Nc1nc(N2CCCCC2)nc(N(CCC(=O)O)Cc2cccc(C)c2)n1
221 to 223 | CC(C)C1(C)N=C(c2nc3sccc3cc2C(=O)O)NC1=O (stereo unspecified)
96 to 98 | CS(=O)(=O)Oc1ccc([N+](=O)[O-])c(OCCBr)c1

melting point [°C] | SMILES
159 to 160 | CC1(C)NC(=O)c2ccccc21
208 to 211 | CN1CCN(CCCNc2ncc3cc(-c4c(Cl)cccc4Cl)c(N)nc3n2)CC1
160 to 161 | CCN(CC)CC1CCCCN1CCCNC(=O)N1c2ccccc2C(=O)Nc2cccnc21 (stereo unspecified)
239 to 241 | CC(=NNC(=O)c1ccncc1)c1ccc2nnn(Cc3ccc4ncccc4c3)c2n1
134 to 138 | COc1ccc(CNc2nc(Cl)ccc2C=O)cc1Cl
52 | CCCCNc1c([N+](=O)[O-])cc(C)cc1[N+](=O)[O-]
180 to 182 | Cn1nc(Nc2cc(-c3ccc4c(c3)NC(=O)C4)cn3ccnc23)cc1C(C)(C)O
125 to 127 | CCc1ccc(OCCCCCN2CCN(c3nccs3)CC2)cc1
102 to 103 | Fc1ccc(N2CCN(CCCOc3ccccc3-c3nnco3)CC2)cc1
165 to 167 | CNc1nc2c(C)cccc2c2c1CCN2c1ccccc1C
91 to 93 | CCC1(CCCCl)C(=O)Nc2ccccc21 (stereo unspecified)
72 to 73 | COC(=O)CCC(C#N)(CCC(=O)OC)c1ccc(OC)c(OC)c1
166 to 168 | CC(=O)N[C@@H](CSC(C)=O)C(=O)NCCSC(=O)c1ccccc1
154 to 156 | Cc1ccc2c(c1O)NC(O)C1CCCN1C2=O (stereo unspecified)
134 to 137 | O=c1c2c(Cc3ccc(OC(F)(F)F)cc3)n[nH]c2c2cccnc2n1-c1cccc(C(F)(F)F)c1
140 to 147 | Cc1ccc(S(=O)(=O)O[C@@H]2CCCN(S(=O)(=O)c3ccc(C)cc3)C2)cc1
133 to 134 | CC(=O)N(C)CCc1ccc(CCC(=O)O)cc1
131 to 133 | OC1Cc2cc(I)ccc2Sc2ccccc21 (stereo unspecified)
120 | CCCCNc1ccccc1S(=O)(=O)NC(=O)n1nc(SC)n(C)c1=O
110 | COC(=O)c1cc(Cl)sc1NC(C)=O
150 to 158 | N#Cc1ccccc1-c1ccc2[nH]c(CCl)nc2c1
105 to 109 | Cc1ccc(-c2nc(-c3ccc(C)cc3C)nc(-c3ccc(OCC(=O)OC4CC(C)(C)N(OC5CCCCC5)C(C)(C)C4)cc3O)n2)c(C)c1
84 to 86 | CC(C)(C)c1cc(CSCCC(=O)ON(Cc2ccccc2)Cc2ccccc2)cc(C(C)(C)C)c1O

SMILES | melting point [°C]
CC#Cc1ncn2c1CN(C)C(=O)c1ccccc1-2 | 206 to 207
COC(=O)[C@@H]1C[C@@H](Br)C(=O)[C@@H]2[C@@]3(C)C[C@@H](c4ccoc4)OC(=O)[C@H]3CC[C@]21C | 170 to 173
